Test results from patent US11845724B2, “USP30 inhibitors and uses thereof” (Vincere Biosciences, Inc., priority 2019, dated 2023).
Where two headings read alike, the source gives them in different places.

Experiments:
USP30 = USP30 (Homo sapiens (Human), UniProt Q70CQ3); experiment: Dundee MALDI-TOF mass spectrometry assay (IC50); assay type: biochemical; conditions: USP30 25 ng/μl, K48-linked diubiquitin 5.6 μM, avg, read-out: Dundee IC50 μM (avg in vitro MS assay)
Experimental: Compounds were tested in a MALDI-TOF assay based on the paper by Ritorto et al. (Ritorto et al. Screening of DUB activity and specificity by MALDI-TOF mass spectrometry. Nat. […] USP30 (25 ng/μl) tested against K48-linked diubiquitin (5.6 μM). USP30 was diluted in a buffer containing 40 mM Tris, 0.01% BSA, 1 mM DTT and K48 in 40 mM Tris, 0.01% BSA. The compounds were pre-incubated with the USP30 for 5 mins at room temp before the K48 dimer addition. The assay mixture was then incubated for 45 mins at room temp. The assay was stopped by the addition of TFA to a final concentration of 2% (v/v). […] Then 250 nl of these solutions were spotted onto an MTP AnchorChip 1,536 TF and this is analysed on the Bruker rapifleX MALDI-TOF.

[1] = biological target: recombinant USP30 (amino acids 57-517 of the human sequence) (Homo sapiens (Human), UniProt Q70CQ3); experiment: In vitro USP30 biochemical assay (Ubiquitin-Rhodamine)
Experimental: In vitro biochemical assay to establish the potency of compounds for USP30 inhibition: a 384-well plate assay using a fluorophore tagged substrate of USP30 was used for in vitro screening of compounds. Each compound was tested at 10 different concentrations (0.5 to 10,000 nM) in duplicate wells. Compounds were pre-incubated at 25° C. for 30 min in an assay buffer consisting of 20 mM Tris/HCl, pH8.0, 1 mM GSH, 0.01% Triton X-100, 0.03% BGG and 1.5 nM recombinant USP30 (amino acids 57-517 of the human sequence with a C-terminal 6-His tag). Following the pre-incubation, Ubiquitin-Rhodamine substrate dissolved in the assay buffer was added at the final concentration of 25 nM to each well and plates were incubated at 25° C. for an additional 75 minutes. The reaction was stopped by adding 10 mM citric acid and fluorescence was read using excitation wavelength 485 nm, emission of 535 nm. Data were analyzed using Graph Pad Prism software with a four-parameter (floating slope) fit to log concentration data to determine IC50s.

[2] = USP30 IC50 μM (avg), Ubiquitin-Rhodamine substrate 25 nM, 1.5 nM recombinant USP30
[3] = read-out: USP30 IC50 μM (avg), Ubiquitin-Rhodamine substrate 25 nM, 1.5 nM recombinant USP30

Chain of USP30 (Q70CQ3 whole entry): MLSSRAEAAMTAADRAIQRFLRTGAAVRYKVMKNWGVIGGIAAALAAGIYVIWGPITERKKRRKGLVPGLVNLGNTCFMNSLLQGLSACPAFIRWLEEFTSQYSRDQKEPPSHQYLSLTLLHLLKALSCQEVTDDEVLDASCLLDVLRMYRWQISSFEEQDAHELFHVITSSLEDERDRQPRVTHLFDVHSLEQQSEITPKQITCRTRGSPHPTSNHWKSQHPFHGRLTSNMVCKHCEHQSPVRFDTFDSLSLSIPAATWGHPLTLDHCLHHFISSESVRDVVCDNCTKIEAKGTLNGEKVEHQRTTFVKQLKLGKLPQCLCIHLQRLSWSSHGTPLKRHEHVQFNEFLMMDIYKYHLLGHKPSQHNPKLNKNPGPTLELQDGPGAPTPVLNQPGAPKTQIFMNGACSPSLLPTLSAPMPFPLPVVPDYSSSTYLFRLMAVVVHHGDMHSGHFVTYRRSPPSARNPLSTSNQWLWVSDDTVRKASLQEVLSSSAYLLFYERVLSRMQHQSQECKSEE
Chain of recombinant USP30 (amino acids 57-517 of the human sequence) (Q70CQ3 57-517): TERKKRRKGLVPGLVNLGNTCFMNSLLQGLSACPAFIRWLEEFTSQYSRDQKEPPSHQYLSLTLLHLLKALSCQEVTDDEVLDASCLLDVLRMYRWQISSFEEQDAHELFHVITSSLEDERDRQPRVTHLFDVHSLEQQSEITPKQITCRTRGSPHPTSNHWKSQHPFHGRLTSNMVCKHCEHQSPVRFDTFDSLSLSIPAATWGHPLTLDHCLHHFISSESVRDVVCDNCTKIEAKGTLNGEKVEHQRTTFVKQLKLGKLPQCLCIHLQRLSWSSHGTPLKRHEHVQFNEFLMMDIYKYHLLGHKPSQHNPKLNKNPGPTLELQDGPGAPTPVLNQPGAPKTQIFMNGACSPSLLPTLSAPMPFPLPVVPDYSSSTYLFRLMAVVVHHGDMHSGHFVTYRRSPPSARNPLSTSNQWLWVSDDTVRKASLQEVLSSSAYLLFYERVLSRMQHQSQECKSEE

Row | Structure (SMILES) | IC50 (USP30) [µM] | IC50 [1, 2] [µM] | IC50 [1, 3] [µM]
1 | CCNS(=O)(=O)c1ccc(NC(=O)[C@H](Cc2cccnc2)N(C)C(=O)c2ccc(F)cc2)cc1 [Compound I-90, (S)-N-(1-(4-(N-ethylsulfamoyl)phenylamino)-1-oxo-3-(pyridin-3-yl)propan-2-yl)-4-fluoro-N-methylbenzamide] | > 10 | 1 to 10 | –
2 | CN(C(=O)c1ccc(F)cc1)[C@@H](Cc1cccnc1)C(=O)Nc1ccc(S(=O)(=O)NC23CC(C2)C3)cc1 [Compound I-92, (S)-N-(1-(4-(N-bicyclo[1.1.1]pentan-1-ylsulfamoyl)phenylamino)-1-oxo-3-(pyridin-3-yl)propan-2-yl)-4-fluoro-N-methylbenzamide] | 1 to 10 | 1 to 10 | –
3 | O=C(N[C@H](Cc1ccccc1)C(=O)Nc1ccc(S(=O)(=O)NC23CC(C2)C3)cc1)c1ccc(F)cc1 [Compound I-99, (R)-N-(1-(4-(N-bicyclo[1.1.1]pentan-1-ylsulfamoyl)phenylamino)-1-oxo-3-phenylpropan-2-yl)-4-fluorobenzamide] | > 10 | – | > 10
4 | O=C(NC1(C(=O)Nc2ccc(S(=O)(=O)NC3COC3)cc2)Cc2ccccc2C1)c1ccc(F)cc1 [Compound I-101, 2-(4-fluorobenzamido)-N-(4-(N-oxetan-3-ylsulfamoyl)phenyl)-2,3-dihydro-1H-indene-2-carboxamide] | > 10 | – | > 10
5 | O=C(N[C@@H](Cc1ccccc1)C(=O)Nc1ccc(S(=O)(=O)NCCN2CCOCC2)nc1)c1ccc(F)cc1 [Compound I-111, (S)-4-fluoro-N-(1-(6-(N-(2-morpholinoethyl)sulfamoyl)pyridin-3-ylamino)-1-oxo-3-phenylpropan-2-yl)benzamide] | 0.05 to 1 | 0.05 to 1 | –
6 | O=C(N[C@@H](Cc1ccccc1)C(=O)Nc1ccc(S(=O)(=O)NCCCN2CCOCC2)nc1)c1ccc(F)cc1 [Compound I-112, (S)-4-fluoro-N-(1-(6-(N-(3-morpholinopropyl)sulfamoyl)pyridin-3-ylamino)-1-oxo-3-phenylpropan-2-yl)benzamide] | 0.05 to 1 | 0.05 to 1 | –
7 | COCC(C)(C)NS(=O)(=O)c1ccc(NC(=O)[C@H](Cc2ccccc2)NC(=O)c2ccc(F)cc2)cn1 [Compound I-113, (S)-4-fluoro-N-(1-(6-(N-(1-methoxy-2-methylpropan-2-yl)sulfamoyl)pyridin-3-ylamino)-1-oxo-3-phenylpropan-2-yl)benzamide] | 0.05 to 1 | 0.05 to 1 | –
8 | CC(C)(C)OCCNS(=O)(=O)c1ccc(NC(=O)[C@H](Cc2ccccc2)NC(=O)c2ccc(F)cc2)cn1 [Compound I-114, (S)-N-(1-(6-(N-(2-tert-butoxyethyl)sulfamoyl)pyridin-3-ylamino)-1-oxo-3-phenylpropan-2-yl)-4-fluorobenzamide] | 0.05 to 1 | 0.05 to 1 | –
9 | CC(C)(CO)NS(=O)(=O)c1ccc(NC(=O)[C@H](Cc2ccccc2)NC(=O)c2ccc(F)cc2)cn1 [Compound I-116, (S)-4-fluoro-N-(1-(6-(N-(1-hydroxy-2-methylpropan-2-yl)sulfamoyl)pyridin-3-ylamino)-1-oxo-3-phenylpropan-2-yl)benzamide] | 0.05 to 1 | 0.05 to 1 | –
10 | O=C(N[C@@H](Cc1ccccc1)C(=O)Nc1ccc(S(=O)(=O)NC23CC(C2)C3)cn1)c1ccc(F)cc1 [Compound I-118, (S)-N-(1-(5-(N-bicyclo[1.1.1]pentan-1-ylsulfamoyl)pyridin-2-ylamino)-1-oxo-3-phenylpropan-2-yl)-4-fluorobenzamide] | 0.05 to 1 | 0.05 to 1 | –
11 | O=C(N[C@@H](Cc1ccccc1)C(=O)Nc1ccc(S(=O)(=O)NC2COC2)cn1)c1ccc(F)cc1 [Compound I-119, (S)-4-fluoro-N-(1-(5-(N-oxetan-3-ylsulfamoyl)pyridin-2-ylamino)-1-oxo-3-phenylpropan-2-yl)benzamide] | 0.05 to 1 | 0.05 to 1 | –
12 | COCCNS(=O)(=O)c1ccc(NC(=O)[C@H](Cc2ccccc2)NC(=O)c2ccc(F)cc2)nc1 [Compound I-120, (S)-4-fluoro-N-(1-(5-(N-(2-methoxyethyl)sulfamoyl)pyridin-2-ylamino)-1-oxo-3-phenylpropan-2-yl)benzamide] | 0.05 to 1 | 0.05 to 1 | –
13 | O=C(N[C@@H](Cc1ccccc1)C(=O)Nc1ccc(S(=O)(=O)NCCO)cn1)c1ccc(F)cc1 [Compound I-121, (S)-4-fluoro-N-(1-(5-(N-(2-hydroxyethyl)sulfamoyl)pyridin-2-ylamino)-1-oxo-3-phenylpropan-2-yl)benzamide] | 0.05 to 1 | 0.05 to 1 | –
14 | O=C(N[C@@H](Cc1ccccc1)C(=O)Nc1ccc(S(=O)(=O)NCCN2CCOCC2)cn1)c1ccc(F)cc1 [Compound I-122, (S)-4-fluoro-N-(1-(5-(N-(2-morpholinoethyl)sulfamoyl)pyridin-2-ylamino)-1-oxo-3-phenylpropan-2-yl)benzamide] | 0.05 to 1 | 0.05 to 1 | –
15 | O=C(N[C@@H](Cc1ccccc1)C(=O)Nc1ccc(S(=O)(=O)NCCCN2CCOCC2)cn1)c1ccc(F)cc1 [Compound I-123, (S)-4-fluoro-N-(1-(5-(N-(3-morpholinopropyl)sulfamoyl)pyridin-2-ylamino)-1-oxo-3-phenylpropan-2-yl)benzamide] | 0.05 to 1 | 0.05 to 1 | –

Now from value to compound:

Row | IC50 (USP30) [µM] | IC50 [1, 2] [µM] | IC50 [1, 3] [µM] | Structure (SMILES)
16 | 0.05 to 1 | 0.05 to 1 | – | CN(C(=O)c1ccc(F)cc1)[C@@H](Cc1cccnc1)C(=O)Nc1ccc(S(=O)(=O)NC(C)(C)C)cc1 [Compound I-91, (S)-N-(1-(4-(N-tert-butylsulfamoyl)phenylamino)-1-oxo-3-(pyridin-3-yl)propan-2-yl)-4-fluoro-N-methylbenzamide]
17 | 0.05 to 1 | 0.05 to 1 | – | O=C(N[C@@H](Cc1ccccc1)C(=O)Nc1ccc(S(=O)(=O)NC2COC2)cc1)c1cccc(F)c1 [Compound I-94, (S)-3-fluoro-N-(1-(4-(N-oxetan-3-ylsulfamoyl)phenylamino)-1-oxo-3-phenylpropan-2-yl)benzamide]
18 | 0.05 to 1 | 0.05 to 1 | – | O=C(N[C@@H](Cc1ccccc1)C(=O)Nc1ccc(S(=O)(=O)NC23CC(C2)C3)cc1)c1cccc(F)c1 [Compound I-95, (S)-N-(1-(4-(N-bicyclo[1.1.1]pentan-1-ylsulfamoyl)phenylamino)-1-oxo-3-phenylpropan-2-yl)-3-fluorobenzamide]
19 | 0.05 to 1 | – | < 0.05 | Cc1cc(NC(=O)[C@H](Cc2ccccc2)NC(=O)c2ccc(F)cc2)ccc1S(=O)(=O)NC(C)(C)C [Compound I-96, (S)-N-(1-(4-(N-tert-butylsulfamoyl)-3-methylphenylamino)-1-oxo-3-phenylpropan-2-yl)-4-fluorobenzamide]
20 | 0.05 to 1 | 0.05 to 1 | – | Cc1cc(NC(=O)[C@H](Cc2ccccc2)NC(=O)c2ccc(F)cn2)ccc1S(=O)(=O)NC12CC(C1)C2 [Compound I-98, (S)-N-(1-(4-(N-bicyclo[1.1.1]pentan-1-ylsulfamoyl)-3-methylphenylamino)-1-oxo-3-phenylpropan-2-yl)-5-fluoropicolinamide]
21 | 0.05 to 1 | – | > 10 | O=C(NC1(C(=O)Nc2ccc(S(=O)(=O)NC34CC(C3)C4)cc2)Cc2ccccc2C1)c1ccc(F)cc1 [Compound I-102, N-(4-(N-bicyclo[1.1.1]pentan-1-ylsulfamoyl)phenyl)-2-(4-fluorobenzamido)-2,3-dihydro-1H-indene-2-carboxamide]
22 | 0.05 to 1 | 0.05 to 1 | – | CCNS(=O)(=O)c1ccc(NC(=O)[C@H](Cc2ccccc2)NC(=O)c2ccc(F)cc2)cn1 [Compound I-105, (S)-N-(1-(6-(N-ethylsulfamoyl)pyridin-3-ylamino)-1-oxo-3-phenylpropan-2-yl)-4-fluorobenzamide]
23 | 0.05 to 1 | 0.05 to 1 | – | O=C(N[C@@H](Cc1ccccc1)C(=O)Nc1ccc(S(=O)(=O)NC2COC2)nc1)c1ccc(F)cc1 [Compound I-106, (S)-4-fluoro-N-(1-(6-(N-oxetan-3-ylsulfamoyl)pyridin-3-ylamino)-1-oxo-3-phenylpropan-2-yl)benzamide]
24 | 0.05 to 1 | 0.05 to 1 | – | COCCNS(=O)(=O)c1ccc(NC(=O)[C@H](Cc2ccccc2)NC(=O)c2ccc(F)cc2)cn1 [Compound I-108, (S)-4-fluoro-N-(1-(6-(N-(2-methoxyethyl)sulfamoyl)pyridin-3-ylamino)-1-oxo-3-phenylpropan-2-yl)benzamide]
25 | < 0.05 | 0.05 to 1 | – | CC1(NS(=O)(=O)c2ccc(NC(=O)[C@H](Cc3ccccc3)NC(=O)c3ccc(F)cc3)cn2)COC1 [Compound I-115, (S)-4-fluoro-N-(1-(6-(N-(3-methyloxetan-3-yl)sulfamoyl)pyridin-3-ylamino)-1-oxo-3-phenylpropan-2-yl)benzamide]
26 | < 0.05 | 0.05 to 1 | – | CCNS(=O)(=O)c1ccc(NC(=O)[C@H](Cc2ccccc2)NC(=O)c2ccc(F)cc2)nc1 [Compound I-117, (S)-N-(1-(5-(N-ethylsulfamoyl)pyridin-2-ylamino)-1-oxo-3-phenylpropan-2-yl)-4-fluorobenzamide]
27 | < 0.05 | 0.05 to 1 | – | CCNS(=O)(=O)c1cccc2c(NC(=O)[C@H](Cc3ccccc3)NC(=O)C3CCCCC3)cccc12 [Compound I-124, (S)-N-(1-(5-(N-ethylsulfamoyl)naphthalen-1-ylamino)-1-oxo-3-phenylpropan-2-yl)cyclohexanecarboxamide]
28 | < 0.05 | 0.05 to 1 | – | CCNS(=O)(=O)c1cccc2c(NC(=O)[C@H](Cc3ccccc3)NC(=O)c3ccc(F)cc3)cccc12 [Compound I-125]
